Common to all, as to type: functional
In experiment [1] the test system is Mus musculus. The experiment is described as follows: Antiparkinsonian activity in MPTP C57Bl/6 mouse model assessed as immobility time at 20 mg/kg, po administered 24 hrs loast last dose of MPTP measured after 2 hrs post compound dose by open field test relative to saline-treated control.
The test system of experiment [2] is Mus musculus. The experiment is described as follows: Antiparkinsonian activity in MPTP C57Bl/6 mouse model assessed as movement speed at 20 mg/kg, po administered 24 hrs loast last dose of MPTP measured after 2 hrs post compound dose by open field test relative to saline-treated control.
The subject of experiment [3] is Mus musculus. Briefly: Antiparkinsonian activity in MPTP C57Bl/6 mouse model assessed as movement distance at 20 mg/kg, po administered 24 hrs loast last dose of MPTP measured after 2 hrs post compound dose by open field test relative to saline-treated control.
In experiment [4] the test system is Mus musculus. Briefly: Antiparkinsonian activity in MPTP C57Bl/6 mouse model assessed as time of locomotor activity at 20 mg/kg, po administered 24 hrs loast last dose of MPTP measured after 2 hrs post compound dose by open field test relative to saline-treated control.

`C=C(C)[C@@H]1CC=C(C)[C@@H](O)[C@@H]1O`: the Time in the experiment with Mus musculus [1] turned out to be 50.8 s; in the experiment with Mus musculus [4], 69.2 s. Also, the Activity with Mus musculus [2] worked out at 2.6 cm/s; in the experiment on Mus musculus [3], 302 cm.

Take `C=C(CSCCC)[C@@H]1CC=C(C)[C@@H](O)[C@@H]1O`: the Time is 58.6 s in the experiment on Mus musculus [1] and 61.4 s with Mus musculus [4]. In addition, the Activity with Mus musculus [2] came to 2.6 cm/s; with Mus musculus [3], 317.6 cm.

As for `C=C1CO[C@H]2[C@H](O)C(C)=CC[C@@H]12`, the Time in the experiment with Mus musculus [1] amounted to 73.4 s; in the experiment on Mus musculus [4], 46.6 s. In addition, the Activity in the experiment on Mus musculus [2] is 1.7 cm/s; in the experiment on Mus musculus [3], 214 cm.

Turning to `C=C(CCCCC)[C@@H]1CC=C(C)[C@@H](O)[C@@H]1O`, the Time with Mus musculus [1] came out at 56.8 s; with Mus musculus [4], 63.2 s. In addition, the Activity in the experiment on Mus musculus [2] amounted to 2.7 cm/s; with Mus musculus [3], 335.2 cm.

On to `C=C(CNC1C2CC3CC(C2)CC1C3)[C@@H]1CC=C(C)[C@@H](O)[C@@H]1O` (stereo not given in full), for which the values for the Time in the experiment on Mus musculus [1] and in the experiment with Mus musculus [4] were 85.2 s and 34.8 s, respectively. Besides, the Activity was determined as 1.2 cm/s in the experiment on Mus musculus [2] and 149.7 cm in the experiment with Mus musculus [3].

As for `C=C(CNCCN(C)C)[C@@H]1CC=C(C)[C@@H](O)[C@@H]1O`, the Time in the experiment on Mus musculus [1] turned out to be 68.8 s; with Mus musculus [4], 51.2 s. In addition, the Activity in the experiment with Mus musculus [2] was found to be 1.8 cm/s; with Mus musculus [3] it was 225 cm.

For `C=C(CN1C(=O)c2ccccc2C1=O)[C@@H]1CC=C(C)[C@@H](O)[C@@H]1O`, the figures for the Time with Mus musculus [1] and with Mus musculus [4] were 61.7 s and 58.3 s, respectively. The results for the Activity with Mus musculus [2] and in the experiment on Mus musculus [3] were 2.3 cm/s and 280 cm, respectively.

Regarding `C=C(CN1CCOCC1)[C@@H]1CC=C(C)[C@@H](O)[C@@H]1O`, the Time in the experiment on Mus musculus [1] is recorded as 71.5 s; with Mus musculus [4], 48.5 s. Also, the Activity with Mus musculus [2] amounted to 1.7 cm/s; in the experiment with Mus musculus [3], 215.3 cm.

Consider `C=C(CO)[C@@H]1CC=C(C)[C@@H](O)[C@@H]1O`, for which the Time with Mus musculus [1] was 80 s; in the experiment on Mus musculus [4], 37.2 s. The Activity was found to be 1.5 cm/s with Mus musculus [2] and 182.1 cm in the experiment with Mus musculus [3].

`C=C(CN)[C@@H]1CC=C(C)[C@@H](O)[C@@H]1O`: the Time was 66.5 s with Mus musculus [1] and 53.5 s with Mus musculus [4]. In addition, the Activity with Mus musculus [2] is listed as 2 cm/s; in the experiment on Mus musculus [3] it was 248.6 cm.

The values are drawn from ChEMBL document CHEMBL2331143, “Antiparkinsonian activity of some 9-N-, O-, S- and C-derivatives of 3-methyl-6-(prop-1-en-2-yl)cyclohex-3-ene-1,2-diol” (2013).
